As a reminder, the IC50 is the midpoint of a concentration-inhibition curve. A high value points to a need for much substance.

The nature of the assay: Cytotoxicity against SW1116 cells by MTT colometric method. Type of assay: functional, cell-based. The following applies: Homo sapiens, SW 1116. For orientation: Formazan colour is commonly taken as a measure of viable cells.

`O=C1C[C@H]2[C@@H]3CCC(=O)c4c(O)ccc(c43)[C@]2(O)c2cccc(O)c21` [DALDINONE C] displayed an IC50 of 49.5 µM. That is a double-digit micromolar value.
As for `CO[C@H]1C[C@H]2[C@@H]3CCC(=O)c4c(O)ccc(c43)[C@]2(O)c2cccc(O)c21` [DALDINONE D], the figure is 41 µM; as for `O=c1[nH]cc(F)c(=O)[nH]1` [FLUOROURACIL], 37 µM.
